Assay results: ChEMBL document CHEMBL4411274, “Recent advances of tetrazole derivatives as potential anti-tubercular and anti-malarial agents” (Eur J Med Chem, 2019)
≈ marks a conversion by molar mass, not a printed value.

Test system: Plasmodium falciparum
Assay: Antimalarial activity against ring-stage chloroquine-susceptible Plasmodium falciparum 3D7 preincubated for 6 hrs followed by compound wash and measured after 66 hrs by Giemsa-staining based light microscopic analysis
Format: functional, organism-based
Conditions: not given

Row | SMILES | IC50
1 | c1ccc(-n2nnnc2OCC2CCC3(CC2)OOC2(O3)C3CC4CC(C3)CC2C4)cc1 (stereo not given) | 2.1 to 24.4 nM
2 | C1C2CC3CC1CC(C2)C31OOC2(CCC(Nc3nnn[nH]3)CC2)OO1 (stereo not given) | 63 nM

Test system: CHO-K1
Assay: Cytotoxicity against CHOK1 cells after 24 hrs by MTT assay
Format: cell-based
Conditions: Cricetulus griseus, CHO-K1, 24 h

Row | SMILES | IC50
3 | COc1cc(-c2nnnn2S(=O)(=O)c2ccc(C(C)(C)C)cc2)ccc1OCC(O)(Cn1cncn1)c1ccc(Cl)cc1Cl (stereo not given) | > 150 µg/mL
4 | COc1cc(-c2nnnn2S(=O)(=O)c2ccc(Br)cc2)ccc1OCC(O)(Cn1cncn1)c1ccc(Cl)cc1Cl (stereo not given) | > 150 µg/mL
5 | COc1cc(-c2nnnn2S(=O)(=O)c2ccc(C(C)(C)C)cc2)ccc1OCC(O)(Cn1cncn1)c1ccc(F)cc1F (stereo not given) | > 150 µg/mL
6 | COc1cc(-c2nnnn2S(=O)(=O)c2ccc([N+](=O)[O-])cc2)ccc1OCC(O)(Cn1cncn1)c1ccc(Cl)cc1Cl (stereo not given) | > 150 µg/mL
7 | COc1ccc(S(=O)(=O)n2nnnc2-c2ccc(OCC(O)(Cn3cncn3)c3ccc(F)cc3F)c(OC)c2)cc1 (stereo not given) | > 150 µg/mL
8 | COc1cc(-c2nnnn2S(=O)(=O)c2ccc(F)cc2)ccc1OCC(O)(Cn1cncn1)c1ccc(Cl)cc1Cl (stereo not given) | > 150 µg/mL
9 | COc1cc(-c2nnnn2S(=O)(=O)c2ccc(OC(F)(F)F)cc2)ccc1OCC(O)(Cn1cncn1)c1ccc(F)cc1F (stereo not given) | > 150 µg/mL
10 | COc1cc(-c2nnnn2S(=O)(=O)c2ccc(C)cc2)ccc1OCC(O)(Cn1cncn1)c1ccc(Cl)cc1Cl (stereo not given) | > 150 µg/mL
11 | COc1cc(-c2nnnn2S(=O)(=O)c2ccccc2)ccc1OCC(O)(Cn1cncn1)c1ccc(F)cc1F (stereo not given) | > 150 µg/mL
12 | COc1cc(-c2nnnn2S(=O)(=O)c2ccc(OC(F)(F)F)cc2)ccc1OCC(O)(Cn1cncn1)c1ccc(Cl)cc1Cl (stereo not given) | > 150 µg/mL
13 | COc1cc(-c2nnnn2S(=O)(=O)c2ccc(Br)s2)ccc1OCC(O)(Cn1cncn1)c1ccc(F)cc1F (stereo not given) | > 150 µg/mL
14 | COc1cc(-c2nnnn2S(=O)(=O)c2ccc(Br)cc2)ccc1OCC(O)(Cn1cncn1)c1ccc(F)cc1F (stereo not given) | > 150 µg/mL
15 | COc1cc(-c2nnnn2S(=O)(=O)c2ccc(C)cc2)ccc1OCC(O)(Cn1cncn1)c1ccc(F)cc1F (stereo not given) | > 150 µg/mL
16 | COc1cc(-c2nnnn2S(=O)(=O)c2ccc([N+](=O)[O-])cc2)ccc1OCC(O)(Cn1cncn1)c1ccc(F)cc1F (stereo not given) | > 150 µg/mL
17 | COc1cc(-c2nnnn2S(=O)(=O)c2ccc(F)cc2)ccc1OCC(O)(Cn1cncn1)c1ccc(F)cc1F (stereo not given) | > 150 µg/mL
18 | COc1cc(-c2nnnn2S(=O)(=O)c2ccccc2)ccc1OCC(O)(Cn1cncn1)c1ccc(Cl)cc1Cl (stereo not given) | > 150 µg/mL
19 | COc1cc(-c2nnnn2S(=O)(=O)c2ccc(Br)s2)ccc1OCC(O)(Cn1cncn1)c1ccc(Cl)cc1Cl (stereo not given) | > 150 µg/mL
20 | COc1ccc(S(=O)(=O)n2nnnc2-c2ccc(OCC(O)(Cn3cncn3)c3ccc(Cl)cc3Cl)c(OC)c2)cc1 (stereo not given) | > 150 µg/mL

Test system: Plasmodium falciparum
Assay: Antimalarial activity against ring-stage multidrug-resistant Plasmodium falciparum Dd2 preincubated for 6 hrs followed by compound wash and measured after 66 hrs by Giemsa-staining based light microscopic analysis
Format: functional, organism-based
Conditions: not given

Row | SMILES | IC50
21 | c1ccc(-n2nnnc2OCC2CCC3(CC2)OOC2(O3)C3CC4CC(C3)CC2C4)cc1 (stereo not given) | 2.1 to 24.4 nM
22 | C1C2CC3CC1CC(C2)C31OOC2(CCC(Nc3nnn[nH]3)CC2)OO1 (stereo not given) | 43.5 nM

Test system: Mycobacterium tuberculosis
Assay: Antibacterial activity against Mycobacterium tuberculosis H37Rv by MABA
Format: functional
Conditions: not given

Row | SMILES | MIC
23 | COc1cc(-c2nnnn2S(=O)(=O)c2ccc(C(C)(C)C)cc2)ccc1OCC(O)(Cn1cncn1)c1ccc(Cl)cc1Cl (stereo not given) | 1.56 to 12.5 µg/mL (≈ 2.37 to 19 µM)
24 | COc1cc(-c2nnnn2S(=O)(=O)c2ccc(Br)cc2)ccc1OCC(O)(Cn1cncn1)c1ccc(Cl)cc1Cl (stereo not given) | 1.56 to 12.5 µg/mL (≈ 2.29 to 18.3 µM)
25 | COc1cc(-c2nnnn2S(=O)(=O)c2ccc(C(C)(C)C)cc2)ccc1OCC(O)(Cn1cncn1)c1ccc(F)cc1F (stereo not given) | 1.56 µg/mL (≈ 2.49 µM)
26 | COc1cc(-c2nnnn2S(=O)(=O)c2ccc([N+](=O)[O-])cc2)ccc1OCC(O)(Cn1cncn1)c1ccc(Cl)cc1Cl (stereo not given) | 1.56 to 12.5 µg/mL (≈ 2.41 to 19.3 µM)
27 | COc1ccc(S(=O)(=O)n2nnnc2-c2ccc(OCC(O)(Cn3cncn3)c3ccc(F)cc3F)c(OC)c2)cc1 (stereo not given) | 1.56 µg/mL (≈ 2.6 µM)
28 | COc1cc(-c2nnnn2S(=O)(=O)c2ccc(F)cc2)ccc1OCC(O)(Cn1cncn1)c1ccc(Cl)cc1Cl (stereo not given) | 1.56 to 12.5 µg/mL (≈ 2.51 to 20.1 µM)
29 | COc1cc(-c2nnnn2S(=O)(=O)c2ccc(C)cc2)ccc1OCC(O)(Cn1cncn1)c1ccc(Cl)cc1Cl (stereo not given) | 1.56 to 12.5 µg/mL (≈ 2.53 to 20.3 µM)
30 | COc1cc(-c2nnnn2S(=O)(=O)c2ccccc2)ccc1OCC(O)(Cn1cncn1)c1ccc(F)cc1F (stereo not given) | 3.12 µg/mL (≈ 5.48 µM)
31 | COc1cc(-c2nnnn2S(=O)(=O)c2ccc(OC(F)(F)F)cc2)ccc1OCC(O)(Cn1cncn1)c1ccc(Cl)cc1Cl (stereo not given) | 1.56 to 12.5 µg/mL (≈ 2.27 to 18.2 µM)
32 | COc1cc(-c2nnnn2S(=O)(=O)c2ccc(Br)s2)ccc1OCC(O)(Cn1cncn1)c1ccc(F)cc1F (stereo not given) | 1.56 µg/mL (≈ 2.38 µM)
33 | COc1cc(-c2nnnn2S(=O)(=O)c2ccc(Br)cc2)ccc1OCC(O)(Cn1cncn1)c1ccc(F)cc1F (stereo not given) | 3.12 µg/mL (≈ 4.81 µM)
34 | COc1cc(-c2nnnn2S(=O)(=O)c2ccc([N+](=O)[O-])cc2)ccc1OCC(O)(Cn1cncn1)c1ccc(F)cc1F (stereo not given) | 12.5 µg/mL (≈ 20.3 µM)
35 | COc1cc(-c2nnnn2S(=O)(=O)c2ccc(F)cc2)ccc1OCC(O)(Cn1cncn1)c1ccc(F)cc1F (stereo not given) | 6.25 µg/mL (≈ 10.6 µM)
36 | COc1cc(-c2nnnn2S(=O)(=O)c2ccccc2)ccc1OCC(O)(Cn1cncn1)c1ccc(Cl)cc1Cl (stereo not given) | 25 µg/mL (≈ 41.5 µM)
37 | COc1cc(-c2nnnn2S(=O)(=O)c2ccc(Br)s2)ccc1OCC(O)(Cn1cncn1)c1ccc(Cl)cc1Cl (stereo not given) | 1.56 µg/mL (≈ 2.27 µM)
38 | COc1ccc(S(=O)(=O)n2nnnc2-c2ccc(OCC(O)(Cn3cncn3)c3ccc(Cl)cc3Cl)c(OC)c2)cc1 (stereo not given) | 1.56 to 12.5 µg/mL (≈ 2.47 to 19.8 µM)

Test system: Mycobacterium tuberculosis
Assay: Antibacterial activity against Mycobacterium tuberculosis H37Rv by resazurin dye-based assay
Format: functional
Conditions: not given

Row | SMILES | MIC
39 | O=C(Cn1nnnc1-c1ccccc1)NN1C(=O)C(Cl)C1c1ccc(Br)cc1 (stereo not given) | > 6.25 µg/mL
40 | Cc1ccc(C2C(Cl)C(=O)N2NC(=O)Cn2nnnc2-c2ccccc2)cc1 (stereo not given) | > 6.25 µg/mL
41 | O=C(Cn1nnnc1-c1ccccc1)NN1C(=O)C(Cl)C1c1ccc(Cl)cc1 (stereo not given) | > 6.25 µg/mL
42 | CN(C)c1ccc(C2C(Cl)C(=O)N2NC(=O)Cn2nnnc2-c2ccccc2)cc1 (stereo not given) | 0.156 µg/mL (≈ 0.366 µM)
43 | COc1ccc(C2C(Cl)C(=O)N2NC(=O)Cn2nnnc2-c2ccccc2)cc1 (stereo not given) | 0.156 µg/mL (≈ 0.378 µM)
44 | O=C(Cn1nnnc1-c1ccccc1)NN1C(=O)C(Cl)C1c1ccccc1 (stereo not given) | > 6.25 µg/mL
45 | O=C(Cn1nnnc1-c1ccccc1)NN1C(=O)C(Cl)C1c1ccc([N+](=O)[O-])cc1 (stereo not given) | > 6.25 µg/mL
